Columns and labels:
Assay in all cases: selective drug sensitivity score (sDSS, relative to normal bone marrow) (sDSS (score)); higher = more potent and effective on the cell line relative to normal bone marrow cells
Settings in all cases: 72 h
380 = system: 380
ALL-PO = system: ALL-PO
CCRF-HSB2 = system: CCRF-HSB2
COG-LL-317 = system: COG-LL-317
COG-LL-332h = system: COG-LL-332h
COG-LL-394h = system: COG-LL-394h
COG-LL-402h = system: COG-LL-402h
DND-41 = system: DND-41
HAL-01 = system: HAL-01
HPB-ALL = system: HPB-ALL
JURKAT = system: JURKAT
KASUMI-9 = system: KASUMI-9
KOPN-8 = system: KOPN-8
MHH-CALL-3 = system: MHH-CALL-3
MN-60 = system: MN-60
MOLT-14 = system: MOLT-14
MOLT-16 = system: MOLT-16
P12-ICHIKAWA = system: P12-ICHIKAWA
RCH-ACV = system: RCH-ACV
REH = system: REH
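Further: ALL cell lines in 384-well plates, five doses spanning 10,000-fold, each plate scaled between vehicle and 100 µmol/L benzalkonium chloride controls, sDSS an adapted area-under-curve metric.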

Compound	selective drug sensitivity score 380	selective drug sensitivity score (ALL-PO)	selective drug sensitivity score (CCRF-HSB2)	selective drug sensitivity score (COG-LL-317)	selective drug sensitivity score (COG-LL-332h)	selective drug sensitivity score (COG-LL-394h)	selective drug sensitivity score (COG-LL-402h)	selective drug sensitivity score (DND-41)	selective drug sensitivity score (HAL-01)	selective drug sensitivity score (HPB-ALL)	selective drug sensitivity score (JURKAT)	selective drug sensitivity score (KASUMI-9)	selective drug sensitivity score (KOPN-8)	selective drug sensitivity score (MHH-CALL-3)	selective drug sensitivity score (MN-60)	selective drug sensitivity score (MOLT-14)	selective drug sensitivity score (MOLT-16)	selective drug sensitivity score (P12-ICHIKAWA)	selective drug sensitivity score (RCH-ACV)	selective drug sensitivity score (REH)
Cc1ccc(C(=O)Nc2ccc(Oc3cc4cnn(C)c4cc3-c3cn[nH]c3)c(F)c2)c(=O)n1-c1ccc(F)cc1 [Merestinib] (top concentration 1000 nM)	-0.62	15.2	-0.22	-0.62	-0.62	-0.62	-0.62	-0.62	5.68	-0.62	-0.62	0.18	-0.62	-0.62	1.38	-0.62	-0.62	-0.62	1.08	-0.62
CCN1CCN(Cc2ccc(Nc3ncc(F)c(-c4cc(F)c5nc(C)n(C(C)C)c5c4)n3)nc2)CC1 [Abemaciclib] (top concentration 2500 nM)	-6.86	-3.36	-2.46	-2.36	-1.66	-3.26	1.74	0.34	-3.06	-2.46	-6.16	5.44	20.2	1.24	-8.16	1.44	8.24	-4.06	8.74	-0.06
Cc1cc(-c2nc(-c3ccc(OC(F)(F)F)cc3)no2)nn1Cc1ccnc(N2CCN(C3CC3)CC2)c1 [BAY_87-2243] (top concentration 1000 nM)	-8.66	5.54	14.9	-0.96	5.54	23.5	-3.16	6.84	-0.66	8.54	30.1	5.24	6.34	-6.36	25.6	8.64	22.9	23.9	14.4	17.1
CC(C)NC(=O)COc1cccc(-c2nc(Nc3ccc4[nH]ncc4c3)c3ccccc3n2)c1 [KD025] (top concentration 5000 nM)	-5.36	5.24	-3.86	-5.36	-0.56	-1.36	-5.36	-5.36	-3.26	-3.26	-3.06	4.04	0.74	-5.36	-5.36	-3.36	0.64	-4.06	-2.16	-5.36
CC(C)C[C@H](NC(=O)CNC(=O)c1cc(Cl)ccc1Cl)B(O)O [Ixazomib] (top concentration 1000 nM)	5.56	8.46	8.86	6.26	8.16	5.26	3.46	9.36	8.26	8.46	4.86	6.56	6.26	8.96	-1.84	4.96	7.06	5.76	7.36	6.76
N#Cc1ccc(COC[C@H]2O[C@@H](n3c(NCc4ccc(Cl)c(Cl)c4)nc4c(N)ncnc43)[C@H](O)[C@@H]2O)cc1 (top concentration 10000 nM)	-0.98	4.82	9.92	6.22	10.4	-0.08	2.02	8.82	0.42	4.32	4.72	-0.58	2.02	0.32	2.12	9.22	9.72	7.22	8.62	9.12
COc1ccccc1S(=O)(=O)Nc1ccc2c(c1)CN(C)C(=O)N2 [PFI-1] (top concentration 30000 nM)	0.1	2.7	1	2.5	-0.5	0.3	3.1	2.3	0.3	1	0.8	6	17.3	5.4	2.9	4.4	8.6	0.8	5.4	-0.6

From the supplement of paper PMC8967900
